Experimental data reported in US20150202181A1, “Method of and compounds for the reduction of alcoholic hangover” (priority 2014, published 2015).
“Also recorded” adds a separate entry of the source.

Columns and labels:
[1] = test system: rodents; settings: cited from earlier work
[2] = test system: acetaldehyde toxicity in rodents; settings: cited from earlier work
[3] = test system: aldehyde dehydrogenase; settings: humans; cited from earlier work
[4] = chronic dosing for two years; cited from earlier work
[5] = test system: humans; settings: cited from earlier work
[6] = test system: alcoholic hangover symptoms; test: Open-label and dose-finding studies in humans drinking alcoholic beverages
[7] = after oral administration; cited from earlier work
[8] = NAC compared with ALA; cited from earlier work

Row | SMILES | LD50 [1] [mg/kg] | Protective effect against acetaldehyde toxicity [2] | Effect on aldehyde dehydrogenase activity [3] | No-observed-effect level [4] [mg/kg/day] | Tolerability ([5]; diabetics given 600 mg/day for four years) | Doses required to decrease alcohol hangover symptoms as monotherapy, compared with the combination [6] | Dose that must be ingested for any noticeable reduction of alcohol hangover symptoms ([6]; monotherapy, ingested prior to imbibing alcoholic beverages) | Oral absorption [7] | LD50 (in words) [1] | Relative solubility (water versus fat) [8] | Outcome of high exposure ([5]; human child, 8480 mg/kg over 72 hours)
1 | O=C(O)CCCC[C@@H]1CCSS1 [ALA, (R)-(+)-lipoic acid] | > 2000 | same effect | increasing aldehyde dehydrogenase activity | 60 | well-tolerated | much greater doses | at least 200 mg | – | – | – | –
2 | N[C@@H](CS)C(=O)O [L-cysteine] | – | – | – | – | – | – | – | not well-absorbed; also recorded: poorly absorbed | – | – | –
3 | CC(=O)N[C@@H](CS)C(=O)O [NAC, N-acetyl-L-cysteine] | – | robust protective effects | – | – | – | much greater doses | – | – | very high | more water soluble | survived with minor liver dysfunction
